From BigSolDB 2.1

O=P1(O)Oc2ccc3ccccc3c2-c2c(ccc3ccccc23)O1
solubility (mole fraction)
Settings	288.15 K	293.15 K	298.15 K	303.15 K	308.15 K	313.15 K	318.15 K	323.15 K	328.15 K	333.15 K
in ethanol	0.00444	0.00462	0.00489	0.00511	0.00533	0.00544	0.00573	0.00601	0.00632	0.00664
in ethyl acetate	0.000286	0.000331	0.000387	0.000434	0.000491	0.000521	0.000555	0.000594	0.000618	0.000645
in isobutanol	0.0035	0.00381	0.0041	0.0045	0.00491	0.00531	0.00575	0.00622	0.00672	0.00738
in isopropanol	0.00339	0.00354	0.0038	0.00404	0.00445	0.00491	0.00563	0.00656	0.00763	0.00891
in methanol	0.00336	0.00347	0.00373	0.00411	0.00452	0.00486	0.0052	0.00555	0.00607	0.00658
in n-butanol	0.00698	0.00709	0.0073	0.00763	0.00802	0.00844	0.00887	0.00932	0.00996	0.0107
in n-propanol	0.00484	0.0053	0.00588	0.00652	0.00731	0.00832	0.00942	0.0106	0.0123	0.0142
